The source made the active and inactive calls. The calls are words filed in the database; no cut-off is given here.
Key:
Format in all cases: cell-based
Conditions in all cases: HCT-116
[1] = biological target: Lysine-specific histone demethylase 1A (Homo sapiens) (UniProt O60341); experiment: Inhibition of LSD1 in human HCT116 cells assessed as increase in cellular histone 3 dimethyllysine 4 level treated at increasing concentration after 48 hrs
[2] = biological target: Lysine-specific histone demethylase 1A (Homo sapiens) (UniProt O60341); experiment: Inhibition of LSD1 in human HCT116 cells assessed as increase in cellular histone 3 methyllysine 4 level treated at increasing concentration after 48 hrs
[3] = biological target: Lysine-specific histone demethylase 1A (Homo sapiens) (UniProt O60341); experiment: Inhibition of LSD1 in human HCT116 cells assessed as increase in cellular histone 3 dimethyllysine 9 level treated at increasing concentration after 48 hrs

Row | inhibition [1] | inhibition [2] | inhibition [3] | Structure (SMILES)
1 | Active | Active | inactive | C/N=C(\NC)NCCCNCCCNCCCN/C(=N/C)NC
2 | Active | Active | inactive | N=C(NCCCNCCCCCCCNCCCNC(=N)NC(=N)NCCC(c1ccccc1)c1ccccc1)NC(=N)NCCC(c1ccccc1)c1ccccc1
